pIC50: −log10 of the molar value.
Experiments:
[1] = target: T1, human HSD17β13 (stable HEK293T cell line overexpressing human HSD17β13) (Homo sapiens, UniProt Q7Z5P4); assay: HSD17β13 inhibitor cell-based screening assay (conversion of estradiol-d2 to estrone-d2 by RF-MS); conditions: conversion of estradiol-d2 to estrone-d2 after 24 hours
T1 construct: expressed in transfected cells
T1 sequence (Q7Z5P4 20-300): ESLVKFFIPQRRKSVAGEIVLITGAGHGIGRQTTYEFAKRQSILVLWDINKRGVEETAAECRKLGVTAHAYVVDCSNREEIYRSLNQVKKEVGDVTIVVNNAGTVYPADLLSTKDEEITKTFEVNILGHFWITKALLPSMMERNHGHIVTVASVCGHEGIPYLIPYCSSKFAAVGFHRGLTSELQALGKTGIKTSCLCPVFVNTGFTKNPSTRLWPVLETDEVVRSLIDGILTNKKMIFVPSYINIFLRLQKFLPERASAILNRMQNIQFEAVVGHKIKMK
Procedure, shortened: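 Cellular IC50 is based on 24-h conversion of estradiol-d2 (5 μM final) to estrone-d2, measured by RF-MS in acetonitrile-precipitated supernatants. Assay uses human HSD17β13-overexpressing HEK293T cells (7.5E3/well, 1% charcoal/dextran FBS MEM), with compounds dosed as a 9-point 1:3 series to 10 μM final. ATPlite luminescence on overexpressing and parent lines measured viability.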

[2] = tested on: human precision cut lung slices from a donor with idiopathic pulmonary fibrosis; assay: Human precision cut lung slice (PCLS) culture, donor with idiopathic pulmonary fibrosis; assay type: cell-based; conditions: IPF donor PCLS; FIG. 2b
Method: Human PCLS were generated from lung explants of patients with pulmonary fibrosis (donor ID #221028) or normal donor (donor ID #220730). Cryopreserved hPCLSs were obtained from Institute for In Vitro Sciences (IIVS) and maintained with air-liquid interface culture approach under 37° C., 5% CO2 and 95% humidity. hPCLS were cultured in DMEM-F12 (Invitrogen, Cat No. 11330032) containing 0.2% primocin (Invivogen, Cat No. ant-pm-1) and 1% insulin-transferrin-selenium (ITS-G; Invitrogen, Cat No. 41400045), after initial acclimation in acclimation media, including culture media supplemented with 1% antibiotic antimycotic solution (Invitrogen, Cat No. 15240062), 2 mM Hydrocortisone (Millipore Sigma,) and 5 mg/ml 2-phospho-L-abscorbic acid trisodium salt (Millipore Sigma, Cat No. 49752-10G) for 3 days. Slices of tissue were flatly grown in the tissue culture inserts with 0.4 μm pores of a 12-well plate (StemCell Technologies, Cat No. 1001027), supplemented with 100 μl culture media in the apical side containing PCLSs, and 900 μL culture media in the basal compartment. Media were changed every 48 hours. hPCLS were treated and randomly assigned in replicates of 6-8 per condition 7 days after recovery from cryopreservation. […] IPF donor PCLS were collected at day 8 for subsequent RNA isolation and gene expression quantification. […]

SMILES: COc1ccc(-c2nc3sc4c(O)c(Cl)ccc4c3c(=O)n2Cc2cnco2)c(C2CC2)c1 [Example 26, 7-chloro-2-(2-cyclopropyl-4-methoxyphenyl)-8-hydroxy-3-(oxazol-5-ylmethyl)benzo[4,5]thieno[2,3-d]pyrimidin-4(3H)-one]
- pIC50 [1]: > 7.00
- secreted fibronectin (lung fibronectin content) [2]: decreased

SMILES: CS(=O)(=O)c1ccc(-c2nc3sc4c(O)c(Cl)ccc4c3c(=O)n2Cc2cnc(C(F)(F)F)nc2)c(C2CC2)c1 [Example 64, 7-chloro-2-(2-cyclopropyl-4-(methylsulfonyl)phenyl)-8-hydroxy-3-((2-(trifluoromethyl)pyrimidin-5-yl)methyl)benzo[4,5]thieno[2,3-d]pyrimidin-4(3H)-one]
- pIC50 [1]: > 7.00

Reference: patent US20250154163A1, “Pyrimidinone-Containing 17-Beta-Hydroxysteroid Dehydrogenase Type 13 Inhibitors” (ENANTA PHARMACEUTICALS, INC., priority 2023, published 2025)
